Several values for one entry are separate records, joined by “and”; a condition that tells them apart may be missing. Equal entries are not always repeated. Entries after “also recorded” stand apart in the source; their conditions may differ. Where two headings read alike, the source gives them in different places. Marks after values point to notes of the source that are not given here.
Columns and labels:
mice [1] = tested on: mice; design: method as in PMID 18353307, PMID 25816912; conditions: 95% confidence limits in parentheses; cited from earlier work
mice [2] = tested on: mice; design: method as in PMID 18353307, PMID 25816912; conditions: 95% confidence limits in parentheses; cited from earlier work; remark: listed apart in the source
mice [3] = tested on: mice; design: method as in PMID 18353307, PMID 25816912; conditions: 95% confidence limits in parentheses; cited from earlier work; remark: listed apart in the source
mice [4] = assay: Abdominal constriction test; format: in vivo; conditions: for effect of antagonist pretreatment on Dezocine-produced antinociception: antagonist 20 mg/kg i.p., 24 h before 0.25 mg/kg Dezocine; for effect of Dezocine on morphine-induced antinociception: 0.05 mg/kg Dezocine; for ED50: Mus musculus
human κ-opioid receptor [5] = molecular target: T1, human κ-opioid receptor (Homo sapiens, UniProt P41145); assay: [35S]GTPγS binding assay, KOR; format: biochemical
T1 construct: expressed in transfected cells; membranes prepared

human κ-opioid receptor [6] = molecular target: T1, human κ-opioid receptor; assay: Receptor binding assay, [3H]U69593 competition; conditions: CHO cell membranes, 1.5 nM [3H]U69593; read-out: κ binding affinity Ki
rat μ-opioid receptor [7] = molecular target: T2, rat μ-opioid receptor (Rattus norvegicus, UniProt P33535); assay: Receptor binding assay, [3H]DAMGO competition
T2 construct: expressed in transfected cells; membranes prepared

rat δ-opioid receptor [8] = molecular target: T3, rat δ-opioid receptor (Rattus norvegicus, UniProt P33533); assay: [35S]GTPγS binding assay, DOR; format: biochemical; conditions: read-out: Agonist activity DOR Emax (agonist efficacy at 10 μM)
T3 construct: expressed in transfected cells; membranes prepared

mice [9] = assay: Formalin test; format: in vivo; conditions: for ED50: Mus musculus, 0.25 h
Method: (§1) Kunming strain male and female mice weighing 20 to 24 g were obtained from the Laboratory Animal Center, Chinese Academy of Sciences (Shanghai, China). Mice were housed in groups in a room maintained in a 12/12 h light/dark cycle in a temperature controlled environment with free access to food and water. All research protocols were approved by the Animal Care and Use Committee of Shanghai Institute of Materia Medica, Chinese Academy of Sciences. All experimental procedures were in strict accordance with the National Institutes of Health Guide for the Care and Use of Laboratory Animals.
The formalin test was performed according to our previous work[35]. In brief, the amount of time that mice spent licking or flinching the injected hind paw was recorded after injected with 20 μl 1.0% formalin at the plantar surface of the right hind paw. The mice were observed fro 60 min. The first 10 min was recorded as the phase I, and the rest of time was recorded as phase II. Percentage of analgesia was calculated as 100× (time of control – time of drug)/time of control.

rat μ-opioid receptor [10] = molecular target: T2, rat μ-opioid receptor; assay: [35S]GTPγS binding assay, MOR; format: biochemical; conditions: for functional profile at μ opioid receptor: G protein activation; for Kb: read-out: Antagonist activity MOR Ke
rat δ-opioid receptor [11] = molecular target: T3, rat δ-opioid receptor; assay: Receptor binding assay, [3H]DPDPE competition; conditions: read-out: δ binding affinity Ki
mice [12] = assay: Rotorod test (sedation); format: in vivo; conditions: for sedative effect, rotarod test: 15 min after injection
mice [13] = assay: Hot plate test; format: in vivo
Method: as §1
Hot plate test was performed according to the method described previously[31],[34],[35]. Briefly, mice were placed on a 55 °C heated surface, the latency to licking or jumping was recorded. The cut-off time of 60 s was used to minimize tissue damage. Before formal study, the nociceptive response of each mouse was measured three times, and the mean of the 2nd and 3rd responses was used as pre-drug latency. The mouse not responding within 20 s was excluded. The percentage antinociception was calculated as 100× [(test latency-predrug latency)/(cut-off time -predrug latency)].

[14] = mice, 15 min after drug administration, 95% confidence limits in parentheses

SMILES: CN1CC[C@]23c4c5ccc(O)c4O[C@H]2[C@@H](O)C=C[C@H]3[C@H]1C5 [Morphine]
- Antinociception ED50 Abdominal constriction test (mice [1]): 0.8 (0.5–1.2)^a mg/kg
- Antinociception ED50 Formalin test Phase I (mice [2]): 5.1 (4.3–5.9)^b mg/kg
- Antinociception ED50 Formalin test Phase II (mice [2]): 3.1 (2.8–3.3)^b mg/kg
- Antinociception ED50 Hot plate test (mice [3]): 6.9 (5.6–8.5)^a mg/kg

SMILES: Oc1ccc2c3c1O[C@H]1c4[nH]c5c(c4C[C@@]4(O)[C@@H](C2)N(CC2CC2)CC[C@]314)C[C@@]1(O)[C@H]2Cc3ccc(O)c4c3[C@@]1(CCN2CC1CC1)[C@H]5O4 [nor-BNI, nor-binaltorphimine]
- effect of antagonist pretreatment on Dezocine-produced antinociception (mice [4]; p < 0.05): significantly decreased

SMILES: C[C@@]12CCCCC[C@@H](Cc3ccc(O)cc31)[C@@H]2N [Dezocine]
- functional profile at κ opioid receptor (human κ-opioid receptor [5]; G protein activation): κ partial agonist
- Agonist activity KOR Emax (agonist efficacy at 10 μM) (human κ-opioid receptor [5]; at 10 μM, % of the maximal stimulation obtained with U50,488 H): 33.6 ± 2.4^d %
- Emax at 10 µM (human κ-opioid receptor [5]; read-out: Agonist activity KOR Emax (agonist efficacy at 10 μM), at 10 μM, % of the maximal stimulation obtained with U50,488 H): 33 to 45%
- Kb (human κ-opioid receptor [5]; rightward shift of U50,488 H concentration-response curve, single dose method, read-out: Antagonist activity KOR Ke): 324.1 nM and 324 nM
- Ki (human κ-opioid receptor [6]): 22 ± 1.52 nM
- selectivity for μ over δ opioid receptors (rat μ-opioid receptor [7]; from Ki values): 273 fold
- selectivity for μ over κ opioid receptors (rat μ-opioid receptor [7]; from Ki values): 15 fold
- Ki (rat μ-opioid receptor [7]; read-out: µ binding affinity Ki): 1.46 ± 0.1 nM
- Emax at 10 µM (rat δ-opioid receptor [8]): 26.1 ± 1%
- effect of Dezocine on morphine-induced antinociception (mice [4]; 0.3 mg/kg morphine): did not affect
- effect of Dezocine on morphine-induced antinociception (mice [4]; 0.4 mg/kg morphine, p < 0.05): significantly decreased; also recorded: significantly inhibited
- effect of Dezocine co-administration on morphine antinociception (mice [4]; 0.125 mg/kg Dezocine and 0.3 mg/kg morphine): produced higher antinociception than morphine used alone
- effect of Dezocine on U50,488H-induced antinociception (mice [4]; Dezocine pretreatment, U50,488 H 1.2 mg/kg i.p., without β-FNA): did not inhibit; also recorded: did not affect
- ED50 (mice [4]; 0.25 h, mice, 15 min after drug administration, 95% confidence limits in parentheses, read-out: Antinociception ED50 Abdominal constriction test): 0.2 mg/kg
- ED50 (mice [4]; summary over abdominal constriction and formalin tests, read-out: ED50 values of Dezocine-induced antinociception): 0.2 to 0.4 mg/kg
- potency relative to morphine, abdominal constriction test (mice [4]; ratio of ED50 values): 4 fold
- effect of Dezocine on U50,488H-induced antinociception in the presence of β-FNA (mice [4]; β-FNA pretreatment, U50,488 H 1.2 mg/kg i.p., p < 0.05): significantly decreased
- ED50 (mice [9]; mice, 15 min after drug administration, 95% confidence limits in parentheses, read-out: Antinociception ED50 Formalin test Phase I): 0.4 mg/kg
- ED50 (mice [9]; mice, 15 min after drug administration, 95% confidence limits in parentheses, read-out: Antinociception ED50 Formalin test Phase II): 0.4 mg/kg
- Antinociception ED50 Formalin test Phase I (mice [9]; [14]): 0.4 (0.2–1.0) mg/kg
- Antinociception ED50 Formalin test Phase II (mice [9]; [14]): 0.4 (0.2–0.9) mg/kg
- potency relative to morphine, formalin test phase I (mice [9]; ratio of ED50 values): approximately 13 fold
- potency relative to morphine, formalin test phase II (mice [9]; ratio of ED50 values): 9 fold
- functional profile at μ opioid receptor (rat μ-opioid receptor [10]): μ partial agonist
- Emax at 10 µM (rat μ-opioid receptor [10]; read-out: Agonist activity MOR Emax (agonist efficacy at 10 μM)): 45.8 ± 1.1%
- Kb (rat μ-opioid receptor [10]): 10.4 ± 4.9 nM
- Kb (rat μ-opioid receptor [10]; rightward shift of DAMGO concentration-response curve, single dose method): 10.4 nM
- Ki (rat δ-opioid receptor [11]): 399 ± 43.3 nM
- sedative effect, rotarod test (mice [12]; 2.5 mg/kg, trend, p = 0.0881): did not reach significant difference
- sedative effect, rotarod test (mice [12]; 5 mg/kg, p < 0.05 vs saline): produced significant sedation
- sedative effect, rotarod test (mice [12]; 7.5 and 25 mg/kg): the sedative effect diminished
- dose that produced sedative side effects (ceiling effect) (mice [12]; rotarod test): 5 mg/kg
- maximal antinociceptive effect, hot-plate test (mice [13]; at 7.5 mg/kg, bell-shaped dose-response curve): around 60%
- duration of consistent high (close to peak) antinociceptive response (mice [13]; hot-plate test, time course): up to 1 h
- onset of antinociceptive action (mice [13]; hot-plate test, time course): 5 min
- maximal antinociception, hot-plate test, whatever the route of administration (mice [13]; i.v., s.c., or p.o.): around 55%

SMILES: COC(=O)/C=C/C(=O)N[C@@H]1CC[C@@]2(O)[C@H]3Cc4ccc(O)c5c4[C@@]2(CCN3CC2CC2)[C@H]1O5 [β-FNA, β-funaltrexamine]
- effect of antagonist pretreatment on Dezocine-produced antinociception (mice [4]; p < 0.05): significantly decreased

SMILES: C[C@@H](NC(=O)[C@@H](N)Cc1ccc(O)cc1)C(=O)NCC(=O)N(C)[C@@H](Cc1ccccc1)C(=O)NCCO [DAMGO, [D-Ala2,N-Me-Phe4,Gly5-ol]-enkephalin]
- Emax (rat μ-opioid receptor [10]; 0.1 nM [35S]GTPγS, percentage of stimulated binding over basal, read-out: Agonist activity MOR Emax): 241 ± 33.8%
- functional profile at μ opioid receptor (rat μ-opioid receptor [10]): full agonist efficacy
